According to US9616062B2, “Cyclin dependent kinase inhibitors and methods of use” (priority 2009, dated 2017):

How the values were obtained:
[1] = test system: renal cell proliferation in female FVB wt mice; test: EdU incorporation into whole kidney of cisplatin-treated mice (flow cytometry); format: in vivo, mouse; settings: kidney single cell suspension, 72 h; cisplatin 15 mg/kg IP; PD0332991 100 mg/kg per day in chow or no drug
Method: FIG. 6: CDK4/6 inhibition blocks EdU incorporation into whole kidney in mice treated with cisplatin. […] EdU ([…]) was given IP every 24 hours prior to sacrifice. Kidneys were collected and single cell isolates were prepared and stained for EdU incorporation. Proliferation was assessed by flow cytometry. Data represents % of EdU staining in untreated, cisplatin-treated and cisplatin/PD0332991 treated cells.
[…] Proliferation was assessed by using BrdU (1 mg IP injection) every 6 hours for 24 hours prior to sacrifice or […] (0.1 mg IP) every 24 hours for 3 days prior to sacrifice.
Kidneys were harvested from mice and single cells were isolated using a gentleMACS™ tissue dissociator (Miltinyi Biotec, Bergisch Gladbach, Germany). Briefly, kidneys were cut into small pieces and placed in 10 ml collagenase (1 mg/ml) in a gentleMACS™ C tube (Miltinyi Biotec, Bergisch Gladbach, Germany). Tissue was dissociated following the manufacturer's recommendations (Miltinyi Biotec, Bergisch Gladbach, Germany). Cells were then incubated for 5 minutes in ACK buffer to lyse red blood cells, filtered and pelleted. Cells were resuspended in 4% paraformaldehyde and stored overnight at 4° C. For quantification of EdU incorporation, the cells were fixed, permeabilized, and stained with an APC EdU Flow Kit according to the manufacturer's instruction (Invitrogen Corporation, Carlsbad, Calif., United States of America). Flow cytometric analysis was performed using a CyAn ADP (Dako, Glostrup, Denmark). For each sample, a minimum of 500,000 cells was analyzed and the data were analyzed using FlowJo software (Tree Star, Inc., Ashland, Oreg., United States of America).
The kidney is relatively quiescent until challenged by a renal insult. Therefore, to determine whether renal cell proliferation was dependent on CDK4/6 activity in vivo, renal cell proliferation was stimulated by treating female FVB wt mice with cisplatin, a known nephrotoxic chemotherapeutic agent. At time 0 hr, mice were started on chow delivering PD0332991 100 mg/kg per day or standard chow with no drug. […]

[2] = test system: human peripheral blood T cells (memory and naive); test: Human peripheral blood T cell proliferation after PMA and ionomycin stimulation (BrdU, Ki-67 FACS); format: cell-based
Method: FIG. 13: CDK4/6 inhibitors suppress T cell proliferation upon stimulation through TCR pathway in both memory and naïve compartments. Human peripheral blood T cells were purified using Automacs by CD3 positive selection before being treated with CDK4/6 inhibitors and stimulated with PMA and Inomycin for 48 hrs. The proliferation of memory […] T cells after stimulation by PMA and Inomycin was measured by FACS staining of BrdU+ or Ki-67+ cells. The percentages of inhibition are shown, which indicates more inhibition of memory compartment than naïve compartment.
FIG. 14: CDK4/6 inhibitors suppress T cell proliferation upon stimulation through TCR pathway. […] Proliferation determined by BrdU or Ki67 incorporation. […]
FIG. 15: Changes of CD4 T cell composition after CDK4/6 inhibition. […] The memory and terminal differentiated T cell fractions as assessed by BrdU incorporation are reduced after CDK4/6 inhibition. […]
FIG. 16: Changes of CD4 T cell composition after CDK4/6 inhibition. […] The memory and terminal differentiated T cell fractions as assessed by Ki67 staining are reduced after CDK4/6 inhibition. […]
Similar results were seen using human lymphocytes. […] In FIG. 15, the effects of CDK4/6 inhibition on specific Tcell fractions is assessed, with and without TCR, showing CDK4/6 inhibition has a greater effect on proliferation of memory cells relative to naïve cells. […]

[3] = test system: murine memory and naive T cells; test: Homeostatic T cell proliferation in mice (BrdU incorporation, Ki67); format: in vivo, mouse; settings: murine cells, acute inhibition
Method: FIG. 11A: Acute inhibition of CDK4/6 selectively suppresses memory T cell homeostatic proliferation in mice. Mice were treated with PD0332991 (150 mg/kg by oral gavage). Proliferation of T-cells were assessed using BrdU and flow cytometry.
Animals were treated with CDK4/6 inhibitor (PD0332991, open bars) or vehicle (shaded bars) for 24 hours and euthanized. Splenocytes were isolated and stained for B and T cell markers. After gating on appropriate populations, Ki67 staining was performed as an indicator of proliferation and S-phase. Error bars show +/−SEM.
Acute, pharmacologic inhibition of CDK4/6 suppresses lymphocyte proliferation with the most pronounced effect on memory T cell homeostatic proliferation and germinal center formation in mice. To determine whether inhibiting CDK4/6 affects memory cell generation and maintenance, mice were treated with selective CDK4/6 inhibitors, PD 0332991 or an unrelated selective CDK4/6 inhibitor, 2BrIC. 2BrIC was synthesized by OTAVA Chemicals (Kiev, Ukraine) and can be prepared according to methods described in Zhu et al., J. Med. Chem. 46, 2027-2030 (2003).

[4] = test system: purified human peripheral B cells (CD19+); test: Human B cell proliferation after anti-IgM stimulation (BrdU incorporation); format: cell-based
Method: FIG. 20: CDK4/6 inhibitors suppress B cell proliferation after stimulation through BCR. B cells were purified by Automacs selection of CD19+ cells. The BrdU incorporation of purified human peripheral B cells was determined after anti-IgM stimulation with or without CDK4/6 inhibitor treatment. The fraction of proliferating B cells reduced ˜10 fold after L4D inhibition. L4D=2BrIC
Similar results were seen using human lymphocytes. […] Human lymphocytes are sorted to T(CD3+) and B(CD19+) cells and treated in vitro with CDK4/6 inhibitor prior to stimulation with PMA and Inomycin (P+I)+OKT3 (Tcells) or IgM (Bcells), with proliferation assessed by BrdU uptake and Ki67y expression, and activation assessed by CD25 expression. […] In FIG. 15, the effects of CDK4/6 inhibition on specific Tcell fractions is assessed, with and without TCR, showing CDK4/6 inhibition has a greater effect on proliferation of memory cells relative to naïve cells. […] These alterations in proliferation are associated with decreased T cell activation as measured by CD25 expression.
Cohorts of wild type mice were treated with vehicle or a CDK4/6 inhibitor as in FIG. 11. […] Unstimulated mice were treated for 24 hours with PD0332991 and homeostatic B cell proliferation measured by Ki67 staining after appropriate sorting. […]

SMILES	cells labeled with EdU [1]	proliferation of memory vs naive T cells (BrdU incorporation, Ki67 expression) [2]	homeostatic proliferation of memory vs naive T cells (BrdU incorporation, Ki67 expression) [3]	reduction of the fraction of proliferating B cells (BrdU) [4]
N.N.[Cl][Pt][Cl] [cisplatin]	approximately 17%			
O=C1NC(=O)c2c1c1c3ccccc3[nH]c1c1[nH]c3cc(Br)ccc3c21 [2BrIC, 2-bromo-12,13-dihydro-5H-indolo[2,3-a]pyrrolo[3,4]-carbazole-5,6-dione]		more significant decrease in homeostatic proliferation of memory T cells than naive T cells	more significant decrease in homeostatic proliferation of memory T cells than naive T cells	~10 fold
